≈ marks a conversion by molar mass, not a printed value. Like-named read-outs stand apart in the source and are kept apart here.
Key:
[1] = tested on: E. faecalis ATCC 29212 VSE; experiment: MIC broth microdilution; format: cell-based; details: Enterococcus faecalis, ATCC29212
Description: (§1) Twenty-four test agents were shipped to Micromyx and stored at −20° C. until assayed. The compounds were dissolved in 100% DMSO at 6.46 mg/mL prior to testing. Comparator drugs were supplied by Micromyx and were handled as described below:
(§2) The test organisms for the assay were recent clinical isolates or reference strains acquired from the American Type Culture Collection (ATCC; Manassas, Va.). Upon receipt, the isolates were streaked onto Trypticase Soy Agar II+5% sheep blood (TSAB). Colonies were harvested from the plates and a cell suspension was prepared in Trypticase Soy Broth containing cryoprotectant. Aliquots were then frozen at −80° C. Prior to the assay, the frozen seeds of all bacterial isolates to be tested were thawed and streaked for isolation onto TSAB (BD/BBL, Sparks, Md.; Lot No. 9011894), and were incubated overnight at 35° C.
(§3) The test medium for all isolates was cation-adjusted Mueller Hinton broth (CAMHB; BD/BBL; Lot No. 8190586). CAMHB (Cation Adjusted Mueller Hinton Broth) was supplemented with 3% (v/v) lysed horse blood (LHB; Hemostat, Dixon, Calif.; Lot No. 474990) for the testing of streptococci.
(§4) MIC values were determined using a broth microdilution method as recommended by CLSI. Automated liquid handlers (Multidrop 384, Labsystems, Helsinki, Finland; Biomek 2000 and Biomek F/X, Beckman Coulter, Fullerton Calif.) were used to conduct serial dilutions and make liquid transfers.
(§5) The wells of standard 96-well microdilution plates (Costar 3795, Corning Inc., Corning, N.Y.) were filled with 150 μL of the appropriate diluent in columns 2-12 on the Multidrop 384 (DMSO for the thiostrepton analogs, deionized H2O for vancomycin and ceftazidime). These plates were used to prepare the drug “mother plate” which provided the serial drug dilutions for the replicate “daughter plates”. The compounds (300 μL) were dispensed at 101× the highest concentration to be tested into the appropriate row of the “mother plate”. The Biomek 2000 was used to transfer 150 μL of each stock solution from the wells in Column 1 of the mother plate to make ten subsequent 2-fold serial dilutions. The wells of Column 12 contained no drug and served as the organism growth control wells. The daughter plates were loaded with 190 μL of test medium using the Multidrop 384.
(§6) The daughter plates were prepared on the Biomek F/X instrument which transferred […] of drug solution from each well of the mother plate to each corresponding well of each daughter plate in a single step. The wells of the daughter plates ultimately contained 190 μL of media, 2 μL of drug solution, and 10 μL of inoculum prepared as described below. The final concentration of DMSO (if used as a solvent) in the test well was 1%.
(§7) A standardized inoculum of each organism was prepared per CLSI methods. A suspension of organisms from a fresh plate was prepared in CAMHB to equal the turbidity of a 0.5 McFarland standard. The suspensions were diluted 1:20 in CAMHB, or in the case of streptococci CAMHB with LHB. The inoculum for each organism was dispensed into sterile reservoirs divided by length (Beckman Coulter), and the Biomek 2000 was used to inoculate the plates. Daughter plates were placed on the Biomek 2000 work surface reversed so that inoculation took place from low to high drug concentration. The Biomek 2000 delivered 10 μL of standardized inoculum into each well. These dilutions yielded a final cell concentration in the daughter plates of approximately 5.0×10^5 CFU/mL.
(§8) Plates were stacked 3 high, covered with a lid on the top plate, placed in plastic bags, and incubated at 35° C. for 16-20 hr for all organisms except streptococci which were incubated for 20-24 hr. Following incubation, the microplates were removed from the incubator and viewed from the bottom using a plate viewer. The MIC was read and recorded as the lowest concentration of drug that inhibited visible growth of the organism. […]

S. pyogenes ATCC 19615 = experiment: MIC broth microdilution; format: cell-based; details: Streptococcus pyogenes, ATCC19615, 20 h
Description: as §1, §2, §3, §4, §5, §6, §7, §8

[2] = tested on: S. pneumoniae ATCC 49619 PISP; experiment: MIC broth microdilution; format: cell-based; details: Streptococcus pneumoniae, ATCC49619, 20 h
Description: as §1, §2, §3, §4, §5, §6, §7, §8

[3] = tested on: S. aureus ATCC 29213 MSSA; experiment: MIC broth microdilution; format: cell-based; details: Staphylococcus aureus
Description: as §1, §2, §3, §4, §5, §6, §7, §8

E. coli ATCC 25922 = experiment: MIC broth microdilution; format: cell-based; details: Escherichia coli, ATCC25922
Description: as §1, §2, §3, §4, §5, §6, §7, §8

E. faecium MMX 708 VSE = experiment: MIC broth microdilution; format: cell-based; details: Enterococcus faecium, MMX708VSE
Description: as §1, §2, §3, §4, §5, §6, §7, §8

S. aureus MMX 8088 MRSA = experiment: MIC broth microdilution; format: cell-based; details: Staphylococcus aureus
Description: as §1, §2, §3, §4, §5, §6, §7, §8

E. faecium MMX 485 VRE = experiment: MIC broth microdilution; format: cell-based; details: Enterococcus faecium
Description: as §1, §2, §3, §4, §5, §6, §7, §8

E. faecalis MMX 486 VRE = experiment: MIC broth microdilution; format: cell-based; details: Enterococcus faecalis
Description: as §1, §2, §3, §4, §5, §6, §7, §8

[4] = Un-inoculated solubility control plate (drug precipitation); format: physicochemical; details: for Precipitation in CAMHB: at 64 μg/mL in CAMHB
[5] = Aqueous solubility analysis in MOPS buffer; format: physicochemical; details: aqueous 10 mM MOPS buffer, thermodynamic from solid; after 24 hours in 10 mM aqueous MOPS buffer, pH 7.2
Description: A 2 dram vial was loaded with ˜0.5 mg of a thiostrepton derivative and suspended in ˜4 mL of aqueous 10 mM MOPS buffer (pKa 7.2). The suspension was stirred vigorously for 24 h to ensure equilibration, then filtered through a […] centrifuge filtration unit. A 3.0 mL aliquot was concentrated, and the dried residue was diluted with 0.30 mL of 1:1 1,4-dioxane/H2O (10× original concentration necessitated by detection limits). The total UV absorbance (200-300 nm) was measured in triplicate by UPLC runs with a photodiode array detector. A calibration curve for each compound was created using data points from 3 trials each of concentrations in 1:1 1,4-dioxane/H2O ranging from […]. These concentrations were plotted against their respective average absorbances. The experimental concentration of each compound was calculated by dividing the found μg/mL value by the residue concentration factor of 10 to yield the actual solubility value.

[6] = E. faecalis ATCC 29212 VSE, CAMHB, read-out: MIC
[7] = S. pyogenes ATCC 19615, CAMHB with 3% lysed horse blood, read-out: MIC
[8] = S. pneumoniae ATCC 49619 PISP, CAMHB with 3% lysed horse blood, read-out: MIC
[9] = S. aureus ATCC 29213 MSSA, CAMHB, read-out: MIC
[10] = E. coli ATCC 25922, CAMHB, read-out: MIC
[11] = E. faecium MMX 708 VSE, CAMHB, read-out: MIC
[12] = S. aureus MMX 8088 MRSA, CAMHB, read-out: MIC
[13] = E. faecium MMX 485 VRE, CAMHB, read-out: MIC
[14] = E. faecalis MMX 486 VRE, CAMHB, read-out: MIC

| MIC [1, 6] [µg/mL] | MIC (S. pyogenes ATCC 19615; [7]) [µg/mL] | MIC [2, 8] [µg/mL] | MIC [3, 9] [µg/mL] | MIC (E. coli ATCC 25922; [10]) [µg/mL] | MIC (E. faecium MMX 708 VSE; [11]) [µg/mL] | MIC (S. aureus MMX 8088 MRSA; [12]) [µg/mL] | MIC (E. faecium MMX 485 VRE; [13]) [µg/mL] | MIC (E. faecalis MMX 486 VRE; [14]) [µg/mL] | Precipitation in CAMHB [4] | Compound | also measured |
| --- | --- | --- | --- | --- | --- | --- | --- | --- | --- | --- | --- |
| – | – | – | – | – | – | – | – | – | – | C=C(NC(=O)c1csc(C2=N[C@@H]3c4csc(n4)[C@H]4NC(=O)c5csc(n5)[C@H]([C@](C)(O)[C@@H](C)O)NC(=O)C5CSC(=N5)/C(=C/C)NC(=O)[C@H]([C@@H](C)O)NC(=O)c5csc(n5)[C@]3(CC2)NC(=O)[C@H](C)NC(=O)C(=C)NC(=O)[C@H](C)NC(=O)[C@H]([C@@H](C)CC)N[C@@H]2C=Cc3c([C@H](C)O)cc(nc3[C@H]2O)C(=O)O[C@@H]4C)n1)C(=O)NC(=CNC(=O)c1ccc(OC)cc1)C(N)=O [RJS-07] | MIC [1]: 2 µg/mL (≈ 1.1 µM); MIC (S. pyogenes ATCC 19615): 0.004 µg/mL (≈ 0.0022 µM); MIC [2]: 0.004 µg/mL (≈ 0.0022 µM); MIC [3]: 1 µg/mL (≈ 0.551 µM); MIC (E. coli ATCC 25922): > 64 µg/mL; MIC (E. faecium MMX 708 VSE): 1 µg/mL (≈ 0.551 µM); MIC (S. aureus MMX 8088 MRSA; MRSA): 2 µg/mL (≈ 1.1 µM); MIC (E. faecium MMX 485 VRE; VRE): 1 µg/mL (≈ 0.551 µM); MIC (E. faecalis MMX 486 VRE; VRE): 1 µg/mL (≈ 0.551 µM) |
| 0.5 (≈ 0.268 µM) | 0.002 (≈ 0.00107 µM) | < 0.001 | 1 (≈ 0.537 µM) | > 64 | 0.5 (≈ 0.268 µM) | 1 (≈ 0.537 µM) | 0.5 (≈ 0.268 µM) | 0.5 (≈ 0.268 µM) | distinct precipitation | C=C(NC(=O)c1csc(C2=N[C@@H]3c4csc(n4)[C@H]4NC(=O)c5csc(n5)[C@H]([C@](C)(O)[C@@H](C)O)NC(=O)C5CSC(=N5)/C(=C/C)NC(=O)[C@H]([C@@H](C)O)NC(=O)c5csc(n5)[C@]3(CC2)NC(=O)[C@H](C)NC(=O)C(=C)NC(=O)[C@H](C)NC(=O)[C@H]([C@@H](C)CC)N[C@@H]2C=Cc3c([C@H](C)O)cc(nc3[C@H]2O)C(=O)O[C@@H]4C)n1)C(=O)NC(=CNC(=O)c1ccc(Br)cc1)C(N)=O [RJS-08] | Precipitation in CAMHB in LHB ([4]; at 64 μg/mL in CAMHB in LHB): distinct precipitation |
| 1 (≈ 0.557 µM) | 0.015 (≈ 0.00835 µM) | 0.015 (≈ 0.00835 µM) | 1 (≈ 0.557 µM) | > 64 | 1 (≈ 0.557 µM) | 1 (≈ 0.557 µM) | 1 (≈ 0.557 µM) | 1 (≈ 0.557 µM) | distinct precipitation | C=C(NC(=O)c1csc(C2=N[C@@H]3c4csc(n4)[C@H]4NC(=O)c5csc(n5)[C@H]([C@](C)(O)[C@@H](C)O)NC(=O)C5CSC(=N5)/C(=C/C)NC(=O)[C@H]([C@@H](C)O)NC(=O)c5csc(n5)[C@]3(CC2)NC(=O)[C@H](C)NC(=O)C(=C)NC(=O)[C@H](C)NC(=O)[C@H]([C@@H](C)CC)N[C@@H]2C=Cc3c([C@H](C)O)cc(nc3[C@H]2O)C(=O)O[C@@H]4C)n1)C(=O)NC(=CNC(=O)COCCOC)C(N)=O [RJS-10] | solubility at 24 h [5]: 19 µg/mL (≈ 10.6 µM) |
| 2 (≈ 1.05 µM) | 0.015 (≈ 0.00784 µM) | 0.015 (≈ 0.00784 µM) | 1 (≈ 0.523 µM) | > 64 | 1 (≈ 0.523 µM) | 1 (≈ 0.523 µM) | 1 (≈ 0.523 µM) | 1 (≈ 0.523 µM) | – | C=C(NC(=O)c1csc(C2=N[C@@H]3c4csc(n4)[C@H]4NC(=O)c5csc(n5)[C@H]([C@](C)(O)[C@@H](C)O)NC(=O)C5CSC(=N5)/C(=C/C)NC(=O)[C@H]([C@@H](C)O)NC(=O)c5csc(n5)[C@]3(CC2)NC(=O)[C@H](C)NC(=O)C(=C)NC(=O)[C@H](C)NC(=O)[C@H]([C@@H](C)CC)N[C@@H]2C=Cc3c([C@H](C)O)cc(nc3[C@H]2O)C(=O)O[C@@H]4C)n1)C(=O)NC(=CNC(=O)c1cccc(/C=N/OC(C)(C)C(=O)O)c1)C(N)=O [RJS-13] | – |

Source: patent publication US20220315624A1, “THIOSTREPTON ANALOGS AND METHODS OF MAKING AND USING SAME” (YALE UNIVERSITY, priority 2019, published 2022)
